# Experimental data taken from patent publication US20250285714A1, “A PHARMACEUTICAL PLATFORM TECHNOLOGY FOR DRUG DISCOVERY AND CONSUMER HEALTH PRODUCT DEVELOPMENT” (SINOVEDA CANADA INC., priority 2021, published 2025).
# Legend:
# [1] = known human values; cited from earlier work
# HepG2 cells [2] = test: In-cell Western-blot protein expression in treated HepG2 cells; type: cell-based, human; settings: six hour treatment; CBD 17, CBC 23, CBN 20, Sorafenib 12, SCI-111 17, SCI-521 17 μg/ml
# Protocol: In-cell Western-blot analysis: Protein expression was assessed by seeding 1000 HepG2 cells/well from cyro frozen stocks into 384 well optical bottom black culture plates from Thermo-Scientific (item 142761) in IMDM media with 20% FBS and 1% ethanol. […] After a six hour treatment, the cells were fixated with 4% formaldehyde for 15 minutes, permeated with 0.1% triton-x100 for 10 minutes, and left in blocking buffer (phosphate buffered saline (PBS) with 3% bovine serum albumin (BSA)) overnight at 4 degrees Celsius. The following day, the cells were rinsed with PBS, incubated with 25 μl PBS containing primary antibody (Table 1) for 3 hours at 25° C. Subsequently, the primary antibody was removed, cells were rinsed twice with PBS, and incubated with 25 μl of PBS containing the secondary antibody (Rabbit: Alexa Fluor 790 donkey anti-rabbit IgG (H+L) Lot 2409042; Mouse: Alexa Fluor 790 donkey anti-mouse IgG (H+L) Lot 2300923) at a concentration of 1:2000. Draq5 (1:2000) was added for normalization of data. After an hour incubation in the secondary antibody, the cells were rinsed with PBS and readings at 700 and 800 nm were acquired on a Licor Odyssey fluorescence imager with a resolution of 21 μm. Analysis was subsequently performed with Empiria Studio 2.1. A total of 5 samples were collected per antibody and the sample size was reduced to 3 for the statistical analysis.
# HepG2 cells [3] = test: rtPCR TaqMan array of cancer pathway genes in treated HepG2 cells; type: cell-based, human; settings: 6 h; CBD 17, CBC 23, CBN 20, 1:1:1 17, sorafenib 12 μg/ml
# Protocol: rt-PCR: Target cancer gene pathways will be analyzed using a custom Taqman array card exploring 91 unique genes involved with a few cancer pathways.
# Two million HepG2 cells in IMDM media with 20% FBS, and 1% ethanol were seeded in T75 flasks and incubated at 37° C., 7.5% CO2 until 70-80% confluent (approx. […]). The media were replenished with media containing individual cannabinoids (CBD 17 μg/ml, CBC 23 μg/ml, CBN 20 μg/ml) and cannabinoid mixture of CBD:CBC:CBN of 1:1:1 (17 μg/ml) and incubated for 6 hours prior to harvest. […] Untreated cells were included as a negative control Glyceraldehyde-3-phosphate dehydrogenase (GAPDH) was included as an endogenous control and used for normalization of the data.
# RNA was extracted using Invitrogen's Dynabead mRNA DIRECT kit using the recommended protocol to provide 50 μL of a purified mRNA solution. […] of RT master mix was mixed into the mRNA solution and the mixture left to react at 37° C. for 60 minutes. Reverse transcriptase inactivation was performed at 95° C. for 5 minutes and the resulting cDNA samples were kept at 4° C. until use. Fifty-five microliters of TaqMan Fast Advance master mix were added to an equal amount of cDNA sample containing 1 μg/100 μl of cDNA, which was loaded into each card reservoir. The cards were centrifuged twice at 1200 RPM for 3 minutes in a Legend XFR centrifuge and the rtPCR reaction was conducted in a QuantStudio7 PCR instrument using the standard settings with 40 amplification cycles.
# Assessment of cancer gene pathways were carried out using custom designed TaqMan array cards exploring 86 genes linked to numerous cancer related pathways. […] In addition to individual pathways, genes linked to specific cellular processes were also explored.
# [4] = human
# Text: An inhouse physiologically based pharmacokinetic (PBPK) simulation program has been established. It supports one, two and multi-compartment models. The compartmental model program was designed using Matlab and Simulink to emulate human physiological conditions. With appropriate human physiological parameter input, absorption, distribution, metabolism and excretion profiles of compounds of interest can be estimated in human.
# The parameter used for the evaluation is maximum exposure index (MEI), a product of AUC and the highest percentage recorded for Cannabis.
compound,measurement,setting,value
Cc1cc(=O)n(-c2ccccc2)n1C [antipyrine],Hepatic extraction ratio (E),[1],0.1
Cc1ncc2n1-c1ccc(Cl)cc1C(c1ccccc1F)=NC2 [midazolam],Hepatic extraction ratio (E),[1],0.5
"CCCCCc1cc(O)c2c(c1)OC(C)(CCC=C(C)C)C=C2 (centres unmarked) [CBC, Cannabichromene]","Protein fold change, DVLD (Cellular Adhesion)",HepG2 cells [2],1.34 Fold change
same,"Protein fold change, MEK (MAP kinase/PI3K)",HepG2 cells [2],1.22 Fold change
same,"Protein fold change, MEK PO4 (MAP kinase/PI3K)",HepG2 cells [2],1.68 Fold change
same,"Protein fold change, MET PO4 (Receptor)",HepG2 cells [2],1.80 Fold change
same,"Protein fold change, PTEN PO4 (MAP kinase/PI3K)",HepG2 cells [2],1.40 Fold change
same,"Protein fold change, TEAD2 (HIPPO signaling)",HepG2 cells [2],1.34 Fold change
same,"Protein fold change, c-MYC (Apoptosis)",HepG2 cells [2],1.70 Fold change
same,"Protein fold change, p53 (Apoptosis)",HepG2 cells [2],1.26 Fold change
same,"rtPCR Log2 fold change relative to untreated cells, AKT1 (PI3K/AKT/MTOR)",HepG2 cells [3],−1.915 Log2 fold change
same,"rtPCR Log2 fold change relative to untreated cells, APFAF1 (Apoptosis)",HepG2 cells [3],−1.945 Log2 fold change
same,"rtPCR Log2 fold change relative to untreated cells, BAD (Apoptosis)",HepG2 cells [3],−2.917 Log2 fold change
same,"rtPCR Log2 fold change relative to untreated cells, BAX (Apoptosis)",HepG2 cells [3],−2.332 Log2 fold change
same,"rtPCR Log2 fold change relative to untreated cells, BCL2 (Apoptosis)",HepG2 cells [3],3.95 Log2 fold change
same,"rtPCR Log2 fold change relative to untreated cells, BCL2L1 (Apoptosis)",HepG2 cells [3],−1.241 Log2 fold change
same,"rtPCR Log2 fold change relative to untreated cells, CAMK1 (Ca signaling)",HepG2 cells [3],−2.15 Log2 fold change
same,"rtPCR Log2 fold change relative to untreated cells, CCND1 (Cell Cycle Arrest)",HepG2 cells [3],−1.206 Log2 fold change
same,"rtPCR Log2 fold change relative to untreated cells, CDK1 (Cell Cycle Arrest)",HepG2 cells [3],−1.725 Log2 fold change
same,"rtPCR Log2 fold change relative to untreated cells, CDK2 (Cell Cycle Arrest)",HepG2 cells [3],−1.316 Log2 fold change
same,"rtPCR Log2 fold change relative to untreated cells, CDK4 (Cell Cycle Arrest)",HepG2 cells [3],−1.914 Log2 fold change
same,"rtPCR Log2 fold change relative to untreated cells, CDK6 (Cell Cycle Arrest)",HepG2 cells [3],−1.735 Log2 fold change
same,"rtPCR Log2 fold change relative to untreated cells, CRK - p38 (Cellular Adhesion)",HepG2 cells [3],−1.414 Log2 fold change
same,"rtPCR Log2 fold change relative to untreated cells, CTNNB1 (Cellular Adhesion)",HepG2 cells [3],−1.487 Log2 fold change
same,"rtPCR Log2 fold change relative to untreated cells, ELK1 (Ca signaling)",HepG2 cells [3],−3.143 Log2 fold change
same,"rtPCR Log2 fold change relative to untreated cells, GSK3B (Cellular Adhesion)",HepG2 cells [3],−1.728 Log2 fold change
same,"rtPCR Log2 fold change relative to untreated cells, MAP1LC3A (MAP kinase)",HepG2 cells [3],−2.006 Log2 fold change
same,"rtPCR Log2 fold change relative to untreated cells, MAP2K1 (MAP kinase)",HepG2 cells [3],−2.534 Log2 fold change
same,"rtPCR Log2 fold change relative to untreated cells, MAPK8 (MAP kinase)",HepG2 cells [3],−2.068 Log2 fold change
same,"rtPCR Log2 fold change relative to untreated cells, MITF (Drug Resistance)",HepG2 cells [3],−4.421 Log2 fold change
same,"rtPCR Log2 fold change relative to untreated cells, MNT (Cell Cycle Arrest)",HepG2 cells [3],−2.804 Log2 fold change
same,"rtPCR Log2 fold change relative to untreated cells, MTOR (PI3K/AKT/MTOR)",HepG2 cells [3],−1.847 Log2 fold change
same,"rtPCR Log2 fold change relative to untreated cells, NOTCH1 (NOTCH)",HepG2 cells [3],−1.949 Log2 fold change
same,"rtPCR Log2 fold change relative to untreated cells, PAK3 (P21) (Cell Cycle Arrest)",HepG2 cells [3],−1.643 Log2 fold change
same,"rtPCR Log2 fold change relative to untreated cells, PIK3C2A (PI3K/AKT/MTOR)",HepG2 cells [3],−1.77 Log2 fold change
same,"rtPCR Log2 fold change relative to untreated cells, PIK3R5 (PI3K/AKT/MTOR)",HepG2 cells [3],−1.821 Log2 fold change
same,"rtPCR Log2 fold change relative to untreated cells, RAC1 (MAP kinase)",HepG2 cells [3],−1.422 Log2 fold change
same,"rtPCR Log2 fold change relative to untreated cells, RASA1 (MAP kinase)",HepG2 cells [3],−1.307 Log2 fold change
same,"rtPCR Log2 fold change relative to untreated cells, RASSF1 (MAP kinase)",HepG2 cells [3],−1.813 Log2 fold change
same,"rtPCR Log2 fold change relative to untreated cells, ROCK1 (Cellular Adhesion)",HepG2 cells [3],−1.213 Log2 fold change
same,"rtPCR Log2 fold change relative to untreated cells, SMAD2 (TGF signaling)",HepG2 cells [3],−1.617 Log2 fold change
same,"rtPCR Log2 fold change relative to untreated cells, SMAD3 (TGF signaling)",HepG2 cells [3],−2.487 Log2 fold change
same,"rtPCR Log2 fold change relative to untreated cells, STAT1 (JAK-STAT)",HepG2 cells [3],−2.228 Log2 fold change
same,"rtPCR Log2 fold change relative to untreated cells, STAT5A (JAK-STAT)",HepG2 cells [3],−1.559 Log2 fold change
same,"rtPCR Log2 fold change relative to untreated cells, SUFU (Hedgehog)",HepG2 cells [3],−1.668 Log2 fold change
same,"rtPCR Log2 fold change relative to untreated cells, TAZ (HIPPO)",HepG2 cells [3],−1.874 Log2 fold change
same,"rtPCR Log2 fold change relative to untreated cells, gene name not printed (Angiogenesis, row r45)",HepG2 cells [3],−1.521 Log2 fold change
same,"rtPCR Log2 fold change relative to untreated cells, gene name not printed (Cell Cycle Arrest, row r42)",HepG2 cells [3],−2.312 Log2 fold change
same,"rtPCR Log2 fold change relative to untreated cells, gene name not printed (Cellular Adhesion, row r57)",HepG2 cells [3],−1.865 Log2 fold change
same,"rtPCR Log2 fold change relative to untreated cells, gene name not printed (HIPPO, row r33)",HepG2 cells [3],−1.568 Log2 fold change
same,"rtPCR Log2 fold change relative to untreated cells, gene name not printed (PI3K/AKT/MTOR, row r20)",HepG2 cells [3],−2.204 Log2 fold change
same,"rtPCR Log2 fold change relative to untreated cells, gene name not printed (PI3K/AKT/MTOR, row r22)",HepG2 cells [3],−2.291 Log2 fold change
same,"rtPCR Log2 fold change relative to untreated cells, gene name not printed (Receptors, row r7)",HepG2 cells [3],−2.51 Log2 fold change
"CCCCCc1cc(O)c2c(c1)OC(C)(C)c1ccc(C)cc1-2 [CBN, Cannabinol]","Protein fold change, DVLD (Cellular Adhesion)",HepG2 cells [2],1.66 Fold change
same,"Protein fold change, MEK PO4 (MAP kinase/PI3K)",HepG2 cells [2],1.33 Fold change
same,"Protein fold change, PI3K (MAP kinase/PI3K)",HepG2 cells [2],1.46 Fold change
same,"Protein fold change, TEAD2 (HIPPO signaling)",HepG2 cells [2],1.35 Fold change
same,"Protein fold change, c-MYC (Apoptosis)",HepG2 cells [2],1.40 Fold change
same,"Protein fold change, p53 (Apoptosis)",HepG2 cells [2],1.22 Fold change
same,"rtPCR Log2 fold change relative to untreated cells, BAD (Apoptosis)",HepG2 cells [3],−1.041 Log2 fold change
same,"rtPCR Log2 fold change relative to untreated cells, ELK1 (Ca signaling)",HepG2 cells [3],−1.026 Log2 fold change
same,"rtPCR Log2 fold change relative to untreated cells, MAP3K (MAP kinase)",HepG2 cells [3],1.518 Log2 fold change
same,"rtPCR Log2 fold change relative to untreated cells, MAPK8 (MAP kinase)",HepG2 cells [3],−1.284 Log2 fold change
same,"rtPCR Log2 fold change relative to untreated cells, NOTCH1 (NOTCH)",HepG2 cells [3],−1.084 Log2 fold change
same,"rtPCR Log2 fold change relative to untreated cells, PIK3C2A (PI3K/AKT/MTOR)",HepG2 cells [3],−1.181 Log2 fold change
same,"rtPCR Log2 fold change relative to untreated cells, PIK3R5 (PI3K/AKT/MTOR)",HepG2 cells [3],−2.689 Log2 fold change
same,"rtPCR Log2 fold change relative to untreated cells, PPARG (Receptors)",HepG2 cells [3],2.204 Log2 fold change
same,"rtPCR Log2 fold change relative to untreated cells, SMAD3 (TGF signaling)",HepG2 cells [3],−3.711 Log2 fold change
same,"rtPCR Log2 fold change relative to untreated cells, SMO (Hedgehog)",HepG2 cells [3],2.336 Log2 fold change
same,"rtPCR Log2 fold change relative to untreated cells, TAZ (HIPPO)",HepG2 cells [3],−1.143 Log2 fold change
C=CC(C)(O)CCC=C(C)C (centres unmarked) [Linalool],"MEI, AUC* % mass",[4],0.03
"CCCCCc1cc(O)c(C/C=C(\C)CCC=C(C)C)c(O)c1 [Cannabigerol (CBG), Cannabigerol]","MEI, AUC* % mass",[4],4.89
CC1(C)C2CCC1(C)C(O)C2 (centres unmarked) [Borneol],"MEI, AUC* % mass",[4],0.10
CC1=CCC2CC1C2(C)C (stereo not drawn) [α-pinene],"MEI, AUC* % mass",[4],65.77
